Where two headings read alike, the source gives them in different places.
Target: HiBit-WIZ fusion protein (Homo sapiens, UniProt O95785+Q96SW2)
Assay: Quantification of WIZ protein levels in HiBit tag fusion protein assay (WIZ HiBit assay in 293T cells)
Format: cell-based
Design: Dmax: dose or concentration left out as unconfirmed
[1] = HEK-293T, 100 minus Amax; 293T cells; read-out: % degradation of WIZ (100-Amax)
[2] = HEK-293T, DMSO-normalized, curve-fitted percentage of WIZ-HiBit remaining at 25 uM; 293T cells; read-out: WIZ Amax
[3] = WIZ HiBit assay in 293T cells; 10-point, 5-fold dose response, highest concentration 25 μM, about 18 hours; read-out: WIZ AC50
[4] = HEK-293T, read-out: % degradation of WIZ (100-Amax)
[5] = read-out: WIZ AC50; WIZ HiBit assay in 293T cells; 10-point, 5-fold dose response, highest concentration 25 μM, about 18 hours

Chain of HiBit-WIZ fusion protein (O95785 whole entry, the tested form may be a part): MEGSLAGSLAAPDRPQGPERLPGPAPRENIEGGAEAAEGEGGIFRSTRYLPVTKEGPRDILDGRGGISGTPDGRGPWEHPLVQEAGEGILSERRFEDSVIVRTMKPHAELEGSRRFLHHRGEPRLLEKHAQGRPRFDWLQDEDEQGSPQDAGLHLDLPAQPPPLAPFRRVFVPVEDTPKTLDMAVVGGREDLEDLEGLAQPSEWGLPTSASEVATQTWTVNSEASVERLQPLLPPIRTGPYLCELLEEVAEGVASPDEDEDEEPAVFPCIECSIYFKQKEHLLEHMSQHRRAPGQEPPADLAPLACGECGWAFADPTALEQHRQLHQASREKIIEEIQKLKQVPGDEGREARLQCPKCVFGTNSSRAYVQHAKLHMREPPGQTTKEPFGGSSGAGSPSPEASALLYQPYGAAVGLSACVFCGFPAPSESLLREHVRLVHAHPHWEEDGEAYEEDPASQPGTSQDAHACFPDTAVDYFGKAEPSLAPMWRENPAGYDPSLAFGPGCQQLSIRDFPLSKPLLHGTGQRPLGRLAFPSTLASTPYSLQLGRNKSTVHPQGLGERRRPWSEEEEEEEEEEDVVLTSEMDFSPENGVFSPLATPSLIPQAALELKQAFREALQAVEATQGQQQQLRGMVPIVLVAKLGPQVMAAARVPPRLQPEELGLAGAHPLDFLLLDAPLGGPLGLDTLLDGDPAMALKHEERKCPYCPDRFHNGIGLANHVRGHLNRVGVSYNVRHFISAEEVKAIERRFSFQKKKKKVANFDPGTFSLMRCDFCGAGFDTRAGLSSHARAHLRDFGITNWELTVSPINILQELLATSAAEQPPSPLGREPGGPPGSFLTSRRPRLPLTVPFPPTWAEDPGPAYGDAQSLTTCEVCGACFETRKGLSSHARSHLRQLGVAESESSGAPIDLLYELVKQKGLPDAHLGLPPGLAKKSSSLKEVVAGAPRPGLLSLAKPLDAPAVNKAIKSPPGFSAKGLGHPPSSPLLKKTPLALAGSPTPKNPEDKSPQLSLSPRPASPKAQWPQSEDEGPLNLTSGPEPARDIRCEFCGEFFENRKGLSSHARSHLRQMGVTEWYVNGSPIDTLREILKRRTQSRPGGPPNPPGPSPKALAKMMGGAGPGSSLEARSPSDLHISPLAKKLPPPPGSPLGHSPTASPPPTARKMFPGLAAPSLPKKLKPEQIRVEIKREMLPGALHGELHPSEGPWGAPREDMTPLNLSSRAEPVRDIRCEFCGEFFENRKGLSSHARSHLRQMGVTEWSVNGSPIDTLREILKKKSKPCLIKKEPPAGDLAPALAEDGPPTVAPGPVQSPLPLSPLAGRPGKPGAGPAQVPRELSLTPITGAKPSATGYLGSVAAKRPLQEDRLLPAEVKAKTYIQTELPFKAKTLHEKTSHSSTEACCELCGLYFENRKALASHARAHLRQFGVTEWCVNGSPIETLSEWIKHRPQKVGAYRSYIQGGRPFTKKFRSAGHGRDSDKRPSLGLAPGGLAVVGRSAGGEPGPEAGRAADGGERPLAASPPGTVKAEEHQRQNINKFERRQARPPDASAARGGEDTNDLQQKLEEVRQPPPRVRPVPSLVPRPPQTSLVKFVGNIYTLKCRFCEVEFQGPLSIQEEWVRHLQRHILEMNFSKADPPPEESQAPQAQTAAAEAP
Chain of HiBit-WIZ fusion protein (Q96SW2 whole entry, the tested form may be a part): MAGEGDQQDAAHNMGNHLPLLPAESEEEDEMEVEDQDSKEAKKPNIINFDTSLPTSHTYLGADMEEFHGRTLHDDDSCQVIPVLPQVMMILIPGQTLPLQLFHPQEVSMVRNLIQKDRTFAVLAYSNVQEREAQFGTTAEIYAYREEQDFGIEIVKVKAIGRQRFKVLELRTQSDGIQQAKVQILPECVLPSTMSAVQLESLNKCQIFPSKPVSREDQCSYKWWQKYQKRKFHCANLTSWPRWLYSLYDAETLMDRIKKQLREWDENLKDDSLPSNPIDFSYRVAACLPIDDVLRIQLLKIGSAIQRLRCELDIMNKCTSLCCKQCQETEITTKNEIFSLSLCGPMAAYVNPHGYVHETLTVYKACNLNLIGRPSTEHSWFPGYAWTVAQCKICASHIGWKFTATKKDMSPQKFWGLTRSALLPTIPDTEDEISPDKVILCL
Chain of HiBit-WIZ fusion protein (Q16531 whole entry partner, the tested form may be a part): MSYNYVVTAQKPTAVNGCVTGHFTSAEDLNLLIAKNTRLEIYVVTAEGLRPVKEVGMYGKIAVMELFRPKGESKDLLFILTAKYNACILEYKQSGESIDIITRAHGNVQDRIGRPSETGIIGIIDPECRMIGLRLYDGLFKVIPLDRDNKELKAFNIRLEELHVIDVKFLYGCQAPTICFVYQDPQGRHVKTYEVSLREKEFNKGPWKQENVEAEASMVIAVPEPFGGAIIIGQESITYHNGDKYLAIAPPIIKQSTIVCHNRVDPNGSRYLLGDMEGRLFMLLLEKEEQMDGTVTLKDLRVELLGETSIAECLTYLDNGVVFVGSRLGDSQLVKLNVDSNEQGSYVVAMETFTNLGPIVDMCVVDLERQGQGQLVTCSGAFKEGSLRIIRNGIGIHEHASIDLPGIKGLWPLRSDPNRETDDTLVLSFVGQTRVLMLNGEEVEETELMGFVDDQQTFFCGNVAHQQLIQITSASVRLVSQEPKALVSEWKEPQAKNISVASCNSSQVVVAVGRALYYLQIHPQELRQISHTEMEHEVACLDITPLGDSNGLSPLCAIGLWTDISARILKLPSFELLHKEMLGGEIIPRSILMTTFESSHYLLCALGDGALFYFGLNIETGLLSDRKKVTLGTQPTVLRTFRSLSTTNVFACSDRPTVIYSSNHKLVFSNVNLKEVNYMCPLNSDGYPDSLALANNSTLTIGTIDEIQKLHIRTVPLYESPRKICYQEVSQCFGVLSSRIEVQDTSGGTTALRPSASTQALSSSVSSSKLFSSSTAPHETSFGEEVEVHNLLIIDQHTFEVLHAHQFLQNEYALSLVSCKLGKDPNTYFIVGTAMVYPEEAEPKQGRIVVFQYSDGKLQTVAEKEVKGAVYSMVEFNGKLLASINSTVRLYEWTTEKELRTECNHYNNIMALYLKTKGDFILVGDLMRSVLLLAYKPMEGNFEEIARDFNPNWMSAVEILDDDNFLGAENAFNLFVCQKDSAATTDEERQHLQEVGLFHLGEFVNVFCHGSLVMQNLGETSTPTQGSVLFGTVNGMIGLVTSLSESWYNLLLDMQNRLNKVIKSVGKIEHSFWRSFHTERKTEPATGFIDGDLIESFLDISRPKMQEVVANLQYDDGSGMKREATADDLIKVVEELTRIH

Compound | Dmax [1] [%] | remaining activity at up to 25 µM [2] [%] | DC50 [3] [nM] | Dmax [4] [%] | remaining activity (HEK-293T, read-out: WIZ Amax) [%] | DC50 [5] [nM]
O=C(O)Cn1cnc(CN2CCCC[C@@H]2COc2ccc3c(c2)CN(C2CCC(=O)NC2=O)C3=O)c1 (stereo partly drawn) [Compound I-50da] | 65.1 | 34.9 | 5130 | – | – | –
COC(=O)c1nn(-c2cccc(C(F)(F)F)c2)cc1CN1CCCC[C@@H]1COc1ccc2c(c1)CN(C1CCC(=O)NC1=O)C2=O (stereo partly drawn) [Compound I-50dc] | 39.8 | 60.2 | > 25000 | – | – | –
O=C1CCC(N2Cc3cc(OC[C@H]4CCCCN4Cc4ccccc4Cn4cncn4)ccc3C2=O)C(=O)N1 (stereo partly drawn) [Compound I-50dd] | 39.6 | 60.4 | > 25000 | – | – | –
NS(=O)(=O)c1ccc(CN2CCCC[C@H]2COc2ccc3c(c2)CN(C2CCC(=O)NC2=O)C3=O)cc1 (stereo partly drawn) [Compound I-50de] | – | – | – | 58.5 | 41.5 | 18400
Cn1cncc1CN1CCCC[C@@H]1COc1ccc2c(c1)CN(C1CCC(=O)NC1=O)C2=O (stereo partly drawn) [Compound I-50df] | 55.9 | 44.1 | 11100 | – | – | –
O=C1CCC(N2Cc3cc(OC[C@@H]4CCCCN4Cc4ncccc4O)ccc3C2=O)C(=O)N1 (stereo partly drawn) [Compound I-50dg] | 16.1 | 83.9 | > 25000 | – | – | –
CCc1nc(C)c(CN2CCCC[C@@H]2COc2ccc3c(c2)CN(C2CCC(=O)NC2=O)C3=O)[nH]1 (stereo partly drawn) [Compound I-50dh] | 66.9 | 33.1 | 6530 | – | – | –
CN(C)Cc1ncc(-c2ccc(Oc3cc(Cl)cnc3CN3CCCC[C@@H]3COc3ccc4c(c3)CN(C3CCC(=O)NC3=O)C4=O)cc2)n1C (stereo partly drawn) [Compound I-50di] | 79 | 21 | 1180 | – | – | –
Cc1cccc(-c2n[nH]cc2CN2CCCC[C@@H]2COc2ccc3c(c2)CN(C2CCC(=O)NC2=O)C3=O)c1 (stereo partly drawn) [Compound I-50dj] | 99.7 | 0.3 | 2450 | – | – | –
O=C1CCC(N2Cc3cc(OC[C@H]4CCCCN4Cc4ccnc5[nH]ccc45)ccc3C2=O)C(=O)N1 (stereo partly drawn) [Compound I-50dk] | 87 | 13 | 147 | – | – | –
Cn1nc(CN2CCCC[C@@H]2COc2ccc3c(c2)CN(C2CCC(=O)NC2=O)C3=O)cc1-c1ccccc1 (stereo partly drawn) [Compound I-50dm] | 100 | 0 | 7 | – | – | –
N#Cc1cc(CN2CCCC[C@@H]2COc2ccc3c(c2)CN(C2CCC(=O)NC2=O)C3=O)ccn1 (stereo partly drawn) [Compound I-50dn] | 21.2 | 78.8 | > 25000 | – | – | –
O=C1CCC(N2Cc3cc(OC[C@H]4CCCCN4Cc4cccc(N5CCCC5)c4)ccc3C2=O)C(=O)N1 (stereo partly drawn) [Compound I-50do] | 99.9 | 0.1 | 2 | – | – | –
O=C1CCC(N2Cc3cc(OC[C@H]4CCCCN4Cc4ccc[nH]c4=O)ccc3C2=O)C(=O)N1 (stereo partly drawn) [Compound I-50dp] | 65.5 | 34.5 | 6840 | – | – | –
O=C1CCC(N2Cc3cc(OC[C@H]4CCCCN4Cc4ccccc4OCC(=O)N4CCCCC4)ccc3C2=O)C(=O)N1 (stereo partly drawn) [Compound I-50dq] | 71.2 | 28.8 | 770 | – | – | –
O=C1CCC(N2Cc3cc(OC[C@H]4CCCCN4Cc4ccnc(N5CCOCC5)c4)ccc3C2=O)C(=O)N1 (stereo partly drawn) [Compound I-50dr] | 85.5 | 14.5 | 97 | – | – | –
O=C1CCC(N2Cc3cc(OC[C@H]4CCCCN4Cc4c[nH]cn4)ccc3C2=O)C(=O)N1 (stereo partly drawn) [Compound I-50ds] | 70.8 | 29.2 | 3040 | – | – | –
N#Cc1ccn2cc(CN3CCCC[C@@H]3COc3ccc4c(c3)CN(C3CCC(=O)NC3=O)C4=O)nc2c1 (stereo partly drawn) [Compound I-50dt] | 67 | 33 | 2740 | – | – | –
Cc1nc(-c2cccc(CN3CCCC[C@@H]3COc3ccc4c(c3)CN(C3CCC(=O)NC3=O)C4=O)c2)no1 (stereo partly drawn) [Compound I-50du] | 78.4 | 21.6 | 4260 | – | – | –

Compound | Dmax [1] [%] | remaining activity at up to 25 µM [2] [%] | DC50 [3] [nM] | Dmax [4] [%] | remaining activity (HEK-293T, read-out: WIZ Amax) [%] | DC50 [5] [nM]
Cc1nnc(-c2ccc(CN3CCCC[C@@H]3COc3ccc4c(c3)CN(C3CCC(=O)NC3=O)C4=O)cc2)o1 (stereo partly drawn) [Compound I-50dv] | 65 | 35 | 2990 | – | – | –
CC(C)Cn1cc(CN2CCCC[C@@H]2COc2ccc3c(c2)CN(C2CCC(=O)NC2=O)C3=O)cn1 (stereo partly drawn) [Compound I-50dw] | 99 | 1 | 8 | – | – | –
O=C1CCC(N2Cc3cc(OC[C@H]4CCCCN4Cc4ccc(N5CCOCC5)cc4)ccc3C2=O)C(=O)N1 (stereo partly drawn) [Compound I-50dx] | 98 | 2 | 2 | – | – | –
Cn1ccc2c(CN3CCCC[C@@H]3COc3ccc4c(c3)CN(C3CCC(=O)NC3=O)C4=O)cccc21 (stereo partly drawn) [Compound I-50dy] | 96.6 | 3.4 | 19 | – | – | –
N#Cc1ccccc1CN1CCCC[C@@H]1COc1ccc2c(c1)CN(C1CCC(=O)NC1=O)C2=O (stereo partly drawn) [Compound I-50dz] | 62.8 | 37.2 | 3270 | – | – | –
O=C1CCC(N2Cc3cc(OC[C@@H]4CCCCN4Cc4cocn4)ccc3C2=O)C(=O)N1 (stereo partly drawn) [Compound I-50e] | 41.1 | 58.9 | > 25000 | – | – | –
CC(C)N1CCC(CN2CCCC[C@@H]2COc2ccc3c(c2)CN(C2CCC(=O)NC2=O)C3=O)CC1 (stereo partly drawn) [Compound I-50ea] | 81 | 19 | 651 | – | – | –
CCN(CC)c1ccc(CN2CCCC[C@@H]2COc2ccc3c(c2)CN(C2CCC(=O)NC2=O)C3=O)cn1 (stereo partly drawn) [Compound I-50eb] | 98.5 | 1.5 | 2 | – | – | –
O=C1CCC(N2Cc3cc(OC[C@H]4CCCCN4Cc4cnn(C5CCCCC5)c4)ccc3C2=O)C(=O)N1 (stereo partly drawn) [Compound I-50ec] | 100 | 0 | 17 | – | – | –
O=C1CCC(N2Cc3cc(OC[C@H]4CCCCN4Cc4ccccc4OCCN4CCOCC4)ccc3C2=O)C(=O)N1 (stereo partly drawn) [Compound I-50ed] | 92.3 | 7.7 | 100 | – | – | –
NS(=O)(=O)c1ccc(CN2CCCC[C@@H]2COc2ccc3c(c2)CN(C2CCC(=O)NC2=O)C3=O)cc1 (stereo partly drawn) [Compound I-50ef] | – | – | – | 85.2 | 14.8 | 1460
O=C1CCC(N2Cc3cc(OC[C@H]4CCCCN4Cc4ccc(-n5nccn5)cc4)ccc3C2=O)C(=O)N1 (stereo partly drawn) [Compound I-50eg] | 99.6 | 0.4 | 4 | – | – | –
O=C1CCC(N2Cc3cc(OC[C@H]4CCCCN4Cc4cccc(Cn5ccnc5)c4)ccc3C2=O)C(=O)N1 (stereo partly drawn) [Compound I-50eh] | 97.2 | 2.8 | 13 | – | – | –
O=C1CCC(N2Cc3cc(OC[C@H]4CCCCN4Cc4cc(-n5nnnc5C(F)(F)F)ccc4O)ccc3C2=O)C(=O)N1 (stereo partly drawn) [Compound I-50ei] | 31.4 | 68.6 | > 25000 | – | – | –
O=C1CCC(N2Cc3cc(OC[C@H]4CCCCN4Cc4ncccc4O)ccc3C2=O)C(=O)N1 (stereo partly drawn) [Compound I-50ej] | 17.2 | 82.8 | > 25000 | – | – | –
O=C1CCC(N2Cc3cc(OC[C@H]4CCCCN4Cc4ccc(Cn5ccnc5)cc4)ccc3C2=O)C(=O)N1 (stereo partly drawn) [Compound I-50ek] | 99.1 | 0.9 | 4 | – | – | –
Cc1noc(C)c1CN1CCCC[C@@H]1COc1ccc2c(c1)CN(C1CCC(=O)NC1=O)C2=O (stereo partly drawn) [Compound I-50el] | 30.3 | 69.7 | > 25000 | – | – | –
O=C1CCC(N2Cc3cc(OC[C@H]4CCCCN4Cc4cccc(Cn5cccn5)c4)ccc3C2=O)C(=O)N1 (stereo partly drawn) [Compound I-50en] | 99.8 | 0.2 | 4 | – | – | –
CCn1cc(CN2CCCC[C@@H]2COc2ccc3c(c2)CN(C2CCC(=O)NC2=O)C3=O)cn1 (stereo partly drawn) [Compound I-50eo] | 94 | 6 | 74 | – | – | –

Source: patent US11566022B2, “3-(5-methoxy-1-oxoisoindolin-2-yl)piperidine-2,6-dione derivatives and uses thereof” (NOVARTIS AG, priority 2019, dated 2023)
